From patent publication US9096601B2 (CSPC Zhongqi Pharmaceutical Technology (Shijiazhuang) Co., …, priority 2010, dated 2015)

Tests used:
[1] = system: non-small cell lung carcinoma cell strain H1975 (EGFR L858R/T790M mutation); assay: In-vitro tumor cell proliferation inhibition, MTT; format: cell-based, human; conditions: 72 hours
Procedure: (§1) The object of this assay was to test the inventive compounds for the inhibitory activity of in-vitro tumor cell proliferation. The MTT (tetreamethyl-azo-zole-salt) colorimetric method was used in this assay.
(§2) All of the above-mentioned non-small cell lung carcinoma cell strains and the breast carcinoma cell strain BT 474 were cultured with a RPMI-1640 complete culture medium containing 10% fetal bovine serum, 100 U/ml penicillin and 100 μg/ml streptomycin under 5% CO2 and at 37° C. The other cell strains were cultured with a DMEM complete culture medium containing 10% fetal bovine serum (having a MV4-11 cell content of 20%), 100 U/ml penicillin and 100 μg/ml streptomycin under 5% CO2 and 37° C.
(§3) A cell suspension having a cell concentration of 1-2×10^4 cells/ml was treated with a complete cell culture solution to adjust the cell concentration, wherein the cell concentrations for HCC827 and MV4-11 were adjusted to 6×10^4 cells/ml and 1×10^5 cells/ml respectively. The cell suspension was inoculated in a 96-well plate with 200 μl cell suspension/well and cultured overnight. Next day, the supernatant was drawn off and discarded. Then, the cells were treated with the tested compounds in a gradient concentration respectively. In the meanwhile, a negative control group free of the drug substance and an isovolumetric solvent control group (having a DMSO concentration of 1%) were used. The triplicate wells were used for each of dose groups. The culturing was conducted at 37° C. under 5% CO2. After 72 hours, […] having a concentration of 5 mg/ml was added to each of wells. The culturing was further conducted for 2-4 hours. The supernatant was discarded. Then […] was added to each of wells. The contents in the well were mixed homogenously by oscillation for 15 minutes. The absorbance (A) value was measured with a microplate reader at λ=570 nm (the A value is in the direct proportion to the number of living cells) and averaged. The relative cell proliferation inhibitory rate is (A570 control-group−A570 dose-group)/A570 control-group×100%. The assay was repeated for at least three times. The data was expressed as number average. The statistical data were analyzed using t-test. P<0.05 was considered significant. The cell proliferation inhibition of the following compounds was expressed as IC50 or inhibitory rate.

[2] = system: non-small cell lung carcinoma cell strain PC-9 (EGFR delE746-A750 deletion mutation); assay: In-vitro tumor cell proliferation inhibition, MTT; format: cell-based, human; conditions: 72 hours
Procedure: as §1, §2, §3

[3] = system: non-small cell lung carcinoma cell strain HCC827; assay: In-vitro tumor cell proliferation inhibition, MTT; format: cell-based, human; conditions: 72 hours
Procedure: as §1, §2, §3

[4] = system: non-small cell lung carcinoma cell strain H292 (EGFR WT); assay: In-vitro tumor cell proliferation inhibition, MTT; format: cell-based, human; conditions: 72 hours
Procedure: as §1, §2, §3

[5] = system: malignant melanoma cell strain A375; assay: In-vitro tumor cell proliferation inhibition, MTT; format: cell-based, human; conditions: 72 hours
Description: as §1
(§4) Human non-small cell lung carcinoma cell strains HCC827, PC-9, H1975 (EGFR L858R/T790M mutation) and H292 (EGFR WT), and other tumor type cell strains, including human acute myelogenous leukemia cell strain MV4-11, human chronic granulocytic leukemia cell strain K562, human squamous cell carcinoma cell strain A431, human breast carcinoma cell strains MDA-MB-468 and BT 474, human colon cancer cell strains SW480, HCT116 and SW620, human liver cancer cell strain Hep G2, human gastric cancer cell strain MK-45, and human malignant melanoma cell strain A375 used in this assay were all purchased from ATCC company, USA and kept in the laboratory. All of the above-mentioned non-small cell lung carcinoma cell strains and the breast carcinoma cell strain BT 474 were cultured with a RPMI-1640 complete culture medium containing 10% fetal bovine serum, 100 U/ml penicillin and 100 μg/ml streptomycin under 5% CO2 and at 37° C. The other cell strains were cultured with a DMEM complete culture medium containing 10% fetal bovine serum (having a MV4-11 cell content of 20%), 100 U/ml penicillin and 100 μg/ml streptomycin under 5% CO2 and 37° C.
as §3

[6] = system: chronic granulocytic leukemia cell strain K562; assay: In-vitro tumor cell proliferation inhibition, MTT; format: cell-based, human; conditions: 72 hours
Description: as §1, §4, §3

[7] = system: liver cancer cell strain Hep G2; assay: In-vitro tumor cell proliferation inhibition, MTT; format: cell-based, human; conditions: 72 hours, read-out: HEPG2 (IC50)
Description: as §1, §4, §3

[8] = system: squamous cell carcinoma cell strain A431; assay: In-vitro tumor cell proliferation inhibition, MTT; format: cell-based, human; conditions: 72 hours
Description: as §1, §4, §3

[9] = system: breast carcinoma cell strain BT474; assay: In-vitro tumor cell proliferation inhibition, MTT; format: cell-based, human; conditions: 72 hours
Description: as §1, §4, §3

[10] = system: colon cancer cell strain HCT116; assay: In-vitro tumor cell proliferation inhibition, MTT; format: cell-based, human; conditions: 72 hours
Description: as §1, §4, §3

[11] = system: breast carcinoma cell strain MDA-MB-468; assay: In-vitro tumor cell proliferation inhibition, MTT; format: cell-based, human; conditions: 72 hours
Description: as §1, §4, §3

[12] = system: acute myelogenous leukemia cell strain MV4-11; assay: In-vitro tumor cell proliferation inhibition, MTT; format: cell-based, human; conditions: 72 hours
Description: as §1, §4, §3

[13] = system: colon cancer cell strain SW620; assay: In-vitro tumor cell proliferation inhibition, MTT; format: cell-based, human; conditions: 72 hours
Description: as §1, §4, §3

[14] = system: gastric cancer cell strain MK-45; assay: In-vitro tumor cell proliferation inhibition, MTT; format: cell-based, human; conditions: 72 hours, read-out: MK45 (IC50)
Description: as §1, §4, §3

[15] = system: colon cancer cell strain SW480; assay: In-vitro tumor cell proliferation inhibition, MTT; format: cell-based, human; conditions: 72 hours
Description: as §1, §4, §3

[16] = biological target: MET (Homo sapiens (Human), UniProt P08581); assay: Kinase inhibitory activity, isotopic labeling (γ-33P-ATP); format: biochemical; conditions: compound at 10 μM
Procedure: (§5) The object of this assay was to test the inventive compounds for the kinase inhibitory activity in vitro. In this assay, an isotopic labeling method was used to label the γ phosphate group on ATP. EGFR (including wild type, L858R mutant type and L858R/T790M double mutant type), VEGFR2, ALK, BTK, c-KIT, c-SRC, MET, PDGFRα and FLT3 kinases were tested in vitro for the activity inhibition. Staurosporine was used as a reference molecule (or referred to as a positive control). […] The IC50 value can be obtained by the calculation of the inhibitory rates at a series of different concentrations of the tested compounds.
(§6) To a reaction tube were successively added the buffer solution (8 mM MOPS, pH 7.0, 0.2 mM EDTA, 10 mM MnCl2), the kinase to be tested (5-10 mU) (EGFR/ALK/BTK/c-KIT/c-SRC/MET/PDGFRα/VEGFR2), the substrate for the kinase to be tested (a reference material), 10 mM of the solution of magnesium acetate and γ-^33 P-ATP, and different concentrations of the tested compounds. […] The reaction was terminated with […] of the 3% phosphate buffer solution. 10 μL of the reaction liquid was titrated on the Filtermat A membrane. The membrane was washed with 75 mM of the phosphate solution thrice (5 minutes each time), and then with methanol once, and finally dried. The membrane was subjected to a scintillation counting. The value of the scintillation counting reflected the phosphorylation level of the substrate and therefore could characterize the inhibition of the kinase activity.

[17] = biological target: ALK (Homo sapiens (Human), UniProt Q9UM73); assay: as above; format: biochemical; conditions: compound at 10 μM
Procedure: as §5, §6

[18] = biological target: c-KIT (Homo sapiens (Human), UniProt P10721); assay: as above; format: biochemical; conditions: compound at 10 μM
Procedure: as §5, §6

[19] = biological target: FLT3 (Homo sapiens (Human), UniProt P36888); assay: as above; format: biochemical; conditions: compound at 10 μM
Procedure: as §5, §6

[20] = biological target: BTK (Homo sapiens (Human), UniProt Q06187); assay: as above; format: biochemical; conditions: compound at 10 μM
Procedure: as §5, §6

[21] = biological target: PDGFRα (Homo sapiens (Human), UniProt P16234); assay: as above; format: biochemical; conditions: compound at 10 μM
Procedure: as §5, §6

[22] = biological target: VEGFR2 (Homo sapiens (Human), UniProt P35968); assay: as above; format: biochemical; conditions: ATP 90 μM (Km)
Procedure: as §5, §6

[23] = biological target: c-SRC (Homo sapiens (Human), UniProt P12931); assay: as above; format: biochemical; conditions: compound at 10 μM
Procedure: as §5, §6

BTK, sequence (Q06187 whole entry): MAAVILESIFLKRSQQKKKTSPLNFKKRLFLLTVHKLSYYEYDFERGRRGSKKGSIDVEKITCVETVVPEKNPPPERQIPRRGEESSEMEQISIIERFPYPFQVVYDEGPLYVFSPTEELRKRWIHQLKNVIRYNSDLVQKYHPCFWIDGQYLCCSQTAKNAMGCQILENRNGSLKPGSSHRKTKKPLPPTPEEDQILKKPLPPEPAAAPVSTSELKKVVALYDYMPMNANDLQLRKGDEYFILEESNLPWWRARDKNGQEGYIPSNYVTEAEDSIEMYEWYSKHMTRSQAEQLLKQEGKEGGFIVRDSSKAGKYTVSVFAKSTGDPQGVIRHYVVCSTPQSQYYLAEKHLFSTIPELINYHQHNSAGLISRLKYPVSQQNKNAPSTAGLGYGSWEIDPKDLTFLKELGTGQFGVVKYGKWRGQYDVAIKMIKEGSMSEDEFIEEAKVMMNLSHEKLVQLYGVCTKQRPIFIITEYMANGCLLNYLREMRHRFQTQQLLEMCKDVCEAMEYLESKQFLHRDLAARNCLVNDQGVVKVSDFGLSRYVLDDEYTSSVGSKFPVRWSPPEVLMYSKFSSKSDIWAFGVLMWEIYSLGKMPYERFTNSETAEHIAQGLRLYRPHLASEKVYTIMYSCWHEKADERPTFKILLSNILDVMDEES
ALK, sequence (Q9UM73 19-1620): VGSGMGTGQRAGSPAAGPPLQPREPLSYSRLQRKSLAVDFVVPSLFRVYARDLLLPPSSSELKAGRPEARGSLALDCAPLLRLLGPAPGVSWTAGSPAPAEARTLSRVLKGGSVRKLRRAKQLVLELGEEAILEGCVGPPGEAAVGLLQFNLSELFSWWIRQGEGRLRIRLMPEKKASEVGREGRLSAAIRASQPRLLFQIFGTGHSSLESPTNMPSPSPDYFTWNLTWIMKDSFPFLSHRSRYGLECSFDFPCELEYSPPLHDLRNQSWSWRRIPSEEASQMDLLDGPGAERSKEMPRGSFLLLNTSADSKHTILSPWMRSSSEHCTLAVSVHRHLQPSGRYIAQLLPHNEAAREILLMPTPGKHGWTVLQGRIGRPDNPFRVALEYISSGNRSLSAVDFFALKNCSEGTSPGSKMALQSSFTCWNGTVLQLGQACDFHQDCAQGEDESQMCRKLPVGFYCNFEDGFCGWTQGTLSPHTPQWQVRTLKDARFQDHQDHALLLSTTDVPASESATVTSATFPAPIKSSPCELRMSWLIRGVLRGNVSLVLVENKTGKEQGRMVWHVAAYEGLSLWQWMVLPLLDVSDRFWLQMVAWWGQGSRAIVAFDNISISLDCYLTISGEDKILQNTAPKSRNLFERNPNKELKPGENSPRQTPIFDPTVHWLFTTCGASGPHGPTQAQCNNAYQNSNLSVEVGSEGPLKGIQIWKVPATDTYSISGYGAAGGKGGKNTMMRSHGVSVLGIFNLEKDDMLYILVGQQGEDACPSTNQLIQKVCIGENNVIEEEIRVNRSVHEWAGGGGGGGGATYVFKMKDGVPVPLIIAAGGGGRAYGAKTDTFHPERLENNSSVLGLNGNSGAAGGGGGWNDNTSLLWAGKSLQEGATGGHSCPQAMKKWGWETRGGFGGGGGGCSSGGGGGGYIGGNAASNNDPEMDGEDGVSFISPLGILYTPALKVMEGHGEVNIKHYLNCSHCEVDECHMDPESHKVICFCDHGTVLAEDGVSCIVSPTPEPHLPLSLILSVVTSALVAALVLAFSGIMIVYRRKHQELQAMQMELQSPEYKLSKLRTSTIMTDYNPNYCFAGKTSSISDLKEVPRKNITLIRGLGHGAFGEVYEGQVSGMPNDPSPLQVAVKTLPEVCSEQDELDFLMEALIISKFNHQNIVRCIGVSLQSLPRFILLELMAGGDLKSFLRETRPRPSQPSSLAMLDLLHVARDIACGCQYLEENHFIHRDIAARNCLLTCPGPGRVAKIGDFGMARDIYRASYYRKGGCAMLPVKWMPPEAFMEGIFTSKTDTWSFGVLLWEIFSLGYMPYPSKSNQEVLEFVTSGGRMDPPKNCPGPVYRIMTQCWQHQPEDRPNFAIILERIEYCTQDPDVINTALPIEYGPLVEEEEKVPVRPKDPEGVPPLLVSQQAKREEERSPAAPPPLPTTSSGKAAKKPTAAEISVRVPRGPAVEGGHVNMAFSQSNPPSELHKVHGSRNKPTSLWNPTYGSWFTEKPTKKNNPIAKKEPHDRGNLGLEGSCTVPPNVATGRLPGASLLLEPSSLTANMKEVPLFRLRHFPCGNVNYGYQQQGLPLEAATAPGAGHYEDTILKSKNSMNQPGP
VEGFR2, sequence (P35968 20-1356): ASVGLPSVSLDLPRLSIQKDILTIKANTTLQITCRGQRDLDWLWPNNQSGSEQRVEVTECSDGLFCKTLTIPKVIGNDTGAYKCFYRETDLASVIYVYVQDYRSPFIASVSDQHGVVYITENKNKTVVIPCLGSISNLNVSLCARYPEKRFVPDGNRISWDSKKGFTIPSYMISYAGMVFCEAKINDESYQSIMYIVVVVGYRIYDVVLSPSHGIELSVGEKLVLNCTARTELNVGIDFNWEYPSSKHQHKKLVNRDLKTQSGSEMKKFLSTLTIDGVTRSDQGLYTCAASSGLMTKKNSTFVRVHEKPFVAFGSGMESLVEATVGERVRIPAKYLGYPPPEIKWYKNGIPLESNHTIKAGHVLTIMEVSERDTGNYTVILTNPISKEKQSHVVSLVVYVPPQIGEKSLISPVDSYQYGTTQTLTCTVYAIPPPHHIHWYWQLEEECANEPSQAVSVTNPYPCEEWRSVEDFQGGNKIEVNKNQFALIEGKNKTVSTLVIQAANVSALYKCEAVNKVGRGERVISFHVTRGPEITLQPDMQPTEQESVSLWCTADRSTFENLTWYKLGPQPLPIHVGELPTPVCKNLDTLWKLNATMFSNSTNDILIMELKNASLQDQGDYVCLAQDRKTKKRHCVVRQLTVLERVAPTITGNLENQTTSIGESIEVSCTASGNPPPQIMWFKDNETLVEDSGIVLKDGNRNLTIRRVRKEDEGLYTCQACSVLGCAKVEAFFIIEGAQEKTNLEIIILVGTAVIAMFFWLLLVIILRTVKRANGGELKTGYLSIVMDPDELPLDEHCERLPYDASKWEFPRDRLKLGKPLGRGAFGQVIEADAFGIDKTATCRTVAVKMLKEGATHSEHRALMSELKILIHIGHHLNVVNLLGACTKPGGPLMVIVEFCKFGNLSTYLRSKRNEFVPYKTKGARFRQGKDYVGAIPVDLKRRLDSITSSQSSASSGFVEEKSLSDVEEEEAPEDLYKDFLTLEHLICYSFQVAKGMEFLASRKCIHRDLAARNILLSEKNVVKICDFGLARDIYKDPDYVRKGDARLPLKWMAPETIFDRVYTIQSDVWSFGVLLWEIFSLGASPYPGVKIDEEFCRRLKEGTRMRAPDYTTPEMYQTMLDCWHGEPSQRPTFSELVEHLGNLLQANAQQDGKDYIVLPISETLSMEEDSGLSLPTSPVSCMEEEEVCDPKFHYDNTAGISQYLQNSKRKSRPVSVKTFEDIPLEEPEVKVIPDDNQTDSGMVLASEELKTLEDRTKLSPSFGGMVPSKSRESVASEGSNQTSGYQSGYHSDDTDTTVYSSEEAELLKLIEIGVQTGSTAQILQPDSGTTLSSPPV
FLT3, sequence (P36888 27-993): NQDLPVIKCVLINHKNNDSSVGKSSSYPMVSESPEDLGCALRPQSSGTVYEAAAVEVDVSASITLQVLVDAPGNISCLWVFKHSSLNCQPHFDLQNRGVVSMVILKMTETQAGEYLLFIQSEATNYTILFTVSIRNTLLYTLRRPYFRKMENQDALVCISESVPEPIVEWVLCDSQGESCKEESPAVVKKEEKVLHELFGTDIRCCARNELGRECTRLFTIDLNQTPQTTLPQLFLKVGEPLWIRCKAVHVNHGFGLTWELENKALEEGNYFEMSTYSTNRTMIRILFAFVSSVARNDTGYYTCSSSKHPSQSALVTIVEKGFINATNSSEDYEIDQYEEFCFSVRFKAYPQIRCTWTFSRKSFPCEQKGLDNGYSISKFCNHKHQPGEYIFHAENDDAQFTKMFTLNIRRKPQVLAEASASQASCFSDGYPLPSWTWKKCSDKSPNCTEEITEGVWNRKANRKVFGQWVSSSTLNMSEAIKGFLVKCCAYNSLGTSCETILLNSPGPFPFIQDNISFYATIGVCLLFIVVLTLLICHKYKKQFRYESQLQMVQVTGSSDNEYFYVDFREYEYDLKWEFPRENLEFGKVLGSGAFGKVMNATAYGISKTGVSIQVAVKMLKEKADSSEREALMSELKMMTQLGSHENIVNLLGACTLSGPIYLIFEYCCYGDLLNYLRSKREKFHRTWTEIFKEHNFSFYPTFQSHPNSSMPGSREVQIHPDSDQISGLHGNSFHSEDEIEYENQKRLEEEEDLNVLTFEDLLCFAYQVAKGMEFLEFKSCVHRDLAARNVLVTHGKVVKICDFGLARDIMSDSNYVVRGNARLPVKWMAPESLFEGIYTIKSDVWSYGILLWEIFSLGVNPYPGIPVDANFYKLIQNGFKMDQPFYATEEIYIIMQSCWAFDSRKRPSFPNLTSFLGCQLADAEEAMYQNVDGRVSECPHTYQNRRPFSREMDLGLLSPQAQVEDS
c-SRC, sequence (P12931 whole entry, looked up): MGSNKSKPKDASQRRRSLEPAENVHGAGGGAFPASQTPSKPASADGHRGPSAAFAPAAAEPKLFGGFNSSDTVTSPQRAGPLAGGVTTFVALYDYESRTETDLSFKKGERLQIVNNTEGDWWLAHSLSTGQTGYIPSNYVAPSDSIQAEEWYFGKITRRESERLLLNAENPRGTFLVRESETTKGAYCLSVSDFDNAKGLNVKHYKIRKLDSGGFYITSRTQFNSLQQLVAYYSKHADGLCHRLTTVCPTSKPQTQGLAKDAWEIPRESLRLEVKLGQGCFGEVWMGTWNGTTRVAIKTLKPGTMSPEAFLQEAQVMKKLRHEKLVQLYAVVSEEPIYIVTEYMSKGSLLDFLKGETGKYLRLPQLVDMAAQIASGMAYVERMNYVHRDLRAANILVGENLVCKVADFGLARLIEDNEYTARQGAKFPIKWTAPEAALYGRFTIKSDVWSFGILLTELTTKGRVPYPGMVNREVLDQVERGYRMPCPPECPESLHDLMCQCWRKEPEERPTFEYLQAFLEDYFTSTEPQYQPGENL

SMILES | IC50 [1] | IC50 [2] | IC50 [3] | IC50 [4] | IC50 [5] | IC50 [6] | IC50 [7] | IC50 [8] | IC50 [9] | IC50 [10] | IC50 [11] | IC50 [12] | IC50 [13] | IC50 [14] | IC50 [15] | The kinase activity inhibitory rate (%) by the tested compounds at 10 μM MET [16] | The kinase activity inhibitory rate (%) by the tested compounds at 10 μM ALK [17] | The kinase activity inhibitory rate (%) by the tested compounds at 10 μM c-KIT [18] | The kinase activity inhibitory rate (%) by the tested compounds at 10 μM FLT3 [19] | The kinase activity inhibitory rate (%) by the tested compounds at 10 μM BTK [20] | further results
CC(C)n1c(Nc2ccc(OCc3cccc(F)c3)c(Cl)c2)nc2cnc(Nc3ccc(N4CCN(C)CC4)cc3)nc21 [Compounds 8-19] | 7320 nM | 459 nM | 912 nM | 316 nM | 1660 nM | 2790 nM | 5420 nM | 9320 nM | 4990 nM | > 1000 nM | 9980 nM | 4780 nM | 1990 nM | 1010 nM | > 10000 nM | 97% | 90% | 12% | 43% | 71% | The kinase activity inhibitory rate (%) by the tested compounds at 10 μM PDGFRα [21]: 34%; IC50 [22]: > 1000 nM; The kinase activity inhibitory rate (%) by the tested compounds at 10 μM c-SRC [23]: 97%
CN1CCN(c2ccc(Nc3ncc4nc(Nc5ccccc5)n(C5CCCC5)c4n3)cc2)CC1 [Compounds 8-26] | 369 nM | 0.2 nM | 1.1 nM | 10.7 nM | 378 nM | 120 nM | 6260 nM | 1050 nM | 107 nM | 239 nM | 299 nM | 93 nM | 282 nM | > 1000 nM | 3440 nM | 86% | 71% | 94% | 86% | 99% | The kinase activity inhibitory rate (%) by the tested compounds at 10 μM PDGFRα [21]: 95%; IC50 [22]: 7 nM; The kinase activity inhibitory rate (%) by the tested compounds at 10 μM c-SRC [23]: 99%
